Results: patent US5260425A, “Anthracycline derivatives having cytostatic activity” (priority 1988, dated 1993)
In brackets after ≈: the same amount, converted by molar mass. Read-outs that look alike come from different tables or passages of the source.

Tests used:
[1] = test system: L1210 mouse leukemia cells; assay: Formation of colonies of L1210 leukemia cells in soft agar (cytotoxicity in vitro); type: cell-based; details: Mus musculus
Description: The cytostatic activity of the compounds according to the invention has been tested using L1210 mouse leukemia cells. Employed for this purpose was the formation of colonies of L1210 leukemia cells in agar plates. This method is used to detect the effect of the test substances on the growth behavior of the cells over 1 hour or over several generations. In this connection, with a cell cycle time of 10-12 hours about 14 consecutive generations are observed in the 7 days the test lasts. In this test, the substances having cytostatic activity according to the invention bring about a reduction in the number of colonies to be observed by comparison with an untreated control sample.
Procedure for determining the formation of colonies of L1210 leukemia cells in soft agar
500 leukemia cells per plate were incubated with various concentrations of the test substance at 37° C. for 1 hour. The cells were then washed twice with McCoy5A medium and finally, after addition of 0.3% agar, poured into Petri dishes. Controls were incubated only with fresh medium. In place of the incubation for one hour, in some cases various concentrations and test substances were mixed with the upper agar layer in order in this way to achieve continuous exposure of the cells throughout the incubation time. After the agar had solidified, the plates were incubated in an incubator at 37° C. for 7 days (5% by volume CO2, 95% relative humidity). The number of colonies which had been produced with a diameter of more than 60 μm was then counted. The results have been reported as the number of colonies in treated agar plates as a percentage of the untreated control. The IC50 was determined as a measure of the activity of the substance from the dose-effect plot obtained in this way. The results for the compounds described herein, by comparison with adriamycin, are compiled in Table 1.

[2] = test system: L1210 leukemia; assay: In vivo activity on L1210 leukemia of the mouse (antitumor activity T/C); details: for response vs control in vivo at 2.8 mg/kg: dose 2.80 mg/kg
Description: Ascites fluid is removed from DBA2 mice (female, 18-20 g) under sterile conditions 7 days after inoculation of tumor cells. The ascites is washed three times with PBS (phosphate-buffered saline), counted and adjusted to a cell count of 10^6 in 0.2 ml of PBS.
10^6 cells, suspended in 0.2 ml of PBS, are then injected intraperitoneally into DBF1 mice (female, 18-20 g). 6 animals per group are used for each substance concentration and as controls.
a) The animals are weighed on days 1 and 5 after injection of the test substance. A weight loss of more than 20% on day 5 is regarded as an indicator of a toxic effect of the substance.
b) At the end of the experiment (death of all animals or surviving animals on day 60) the mean survival time of the animals in the particular groups is determined as long as at least 65% of the animals were still alive on day 5 of the experiment. The mean survival time is determined only for animals which die during the course of the experiment. Long-term survivors (LTS) are not included in this calculation and are reported separately.
The antitumor activity (T/C) for the particular substance concentration is determined from the mean survival time (MSTT) in the treated groups and in the control groups (MSTC) as a percentage of the untreated controls in accordance with the following formula: [formula]
The T/C values and the treatment regimen employed in each case are compiled in Table 3, together with the indicative toxicity. T/C values greater than 125% are regarded as an indicator of a significant antitumor activity of the test substance.

[3] = Determination of the indicative toxicity; details: mouse, in vivo; 3xiv,q3d (three intravenous administrations, 3 days interval); survival day 14
[4] = test system: sensitive and resistant L1210 leukemia cells; assay: Proliferation test (MTT reduction), cross-resistance to doxorubicin/adriamycin in vitro; type: cell-based, mouse; details: for Cross-resistance to doxorubicin (in words): L1210, MTT, in vitro; for Degree of resistance of the cell / Cross-resistance to adriamycin (degree of cross-resistance): MTT, 3d; for Degree of resistance of the cell: IC50 resistant subline related to IC50 sensitive subline; for Cross-resistance to adriamycin (degree of cross-resistance): adriamycin = 100.0
Description: L1210, A 549 or HT 29 in the exponential phase of growth are incubated in a cell density of 5×10^3 cells/ml in RPMI 1640 in a 96-well microtiter plate with various concentrations of the test substance at 37° C., 5% CO2 and 95% relative humidity for 72 h. Control experiments receive merely growth medium in place of the test substance. Quadruplicate determinations are set up for each test substance and for the control. After incubation for 65 h, 50 μl of an MTT solution (2.5 mg/ml; MTT=3-(4,5-dimethylthiazol-2-yl)-2,5-diphenyltetrazoliumbromide) in phosphate-buffered saline) are added. MTT is reduced to a dark red insoluble formazan dyestuff in the presence of live cells. This reaction is complete after 7 h (L1210 cells) or after 24 h (A 549, HT 29 cells), and the supernatant medium is carefully removed by aspiration. The insoluble dyestuff is dissolved by addition of 100 μl of DMSO (dimethyl sulfoxide) and the extinction of the resulting solution at a wavelength of 492 nm is then measured for each well in a multiscan 340 CC photometer from Flow.
The ratio of the extinctions for treated and untreated cells provides a dose-effect plot from which the concentration which just kills 50% of the cells (IC50) can be read off. The coefficient of variation for repeat investigations is less than 15%.
The cross-resistance between the particular test compound and doxorubicin as standard compound is determined with the aid of the MTT test (see above for method) on sensitive and resistant L1210 leukemia cells.
The resistant cell line was established by incubation of a sensitive subline with the reference compound in concentrations which increased stepwise.
The IC50 of the test compound on the resistant subline related to the IC50 of the sensitive subline provides both the degree of resistance for the test Compound (DR(T)) and that for the reference compound (DR(R)) in accordance with the formula [formula]
In addition, the degree of cross-resistance (DCR) for the test compound is calculated in accordance with the formula [formula]
In the case where the loss of effect of the test compound on the resistant line in relation to the sensitive line is greater than that of the reference compound it is possible for the degree of cross-resistance to be above 100%.

[5] = Determination of the indicative toxicity; details: mouse, in vivo, ip; 3xip,q3d (three intraperitoneal administrations, 3 days interval); survival day 14
Description: To determine the indicative toxicity, NMRI mice receive an intraperitoneal injection of various doses of the test substance dissolved in 0.5 ml of 5% strength glucose solution on day 0. Control groups receive merely 0.5 ml of 5% strength glucose solution. 5 mice are used for each concentration of the test substance. The number of mice surviving on day 14 is determined, and from this the LD5, LD50 and LD95 are determined by the Litchfield-Wilcoxon method. The toxicity (LD50 (mg/kg)) of the compounds described here is summarized in Table 3 by comparison with adriamycin.

[6] = L1210, 168 h, read-out: IC50, continuous incubation, continuous incubation, 7 days, L1210 colonies in agar
[7] = L1210, read-out: IC50, 1 h incubation, 1 h incubation, then 7 days, L1210 colonies in agar
[8] = Mus musculus, L1210, iv, read-out: T/C, L1210-leukemia in vivo
[9] = 168 h, continuous incubation, 7 days, L1210 colonies in agar, read-out: IC50, continuous incubation
[10] = 1 h incubation, then 7 days, L1210 colonies in agar, read-out: IC50, 1 h incubation

| Structure (SMILES) | IC50 [1, 6] | IC50 [1, 7] | LD50 at 336 h [3] | IC50 [1, 9] | IC50 [1, 10] | Cross-resistance to doxorubicin (in words) [4] | Degree of resistance of the cell [4] | Cross-resistance to adriamycin (degree of cross-resistance) [4] | LD50 at 336 h [5] | also measured |
| --- | --- | --- | --- | --- | --- | --- | --- | --- | --- | --- |
| CC[C@@]1(O)C[C@H](O[C@H]2C[C@H](N(C)CC3CO3)[C@H](O)[C@H](C)O2)c2c(O)c3c(c(O)c2[C@H]1O)C(=O)c1c(O)ccc(O)c1C3=O (stereo partly drawn) [Compound 14m, 7-O-(3'-N-Glycidyl-3'-N-methyl-alpha-L-daunosaminyl)-β-isorhodomycinone] | 0.005 µg/mL (≈ 0.00831 µM) | 0.0024 µg/mL (≈ 0.00399 µM) | 0.3 to 0.75 mg/kg |  |  |  |  |  |  | response vs control in vivo at 0.13 mg/kg [2, 8]: 104% |
| CC[C@@]1(O)C[C@H](O[C@H]2C[C@H](N(C)Cc3ccco3)[C@H](O)[C@H](C)O2)c2c(O)c3c(c(O)c2[C@H]1O)C(=O)c1cccc(O)c1C3=O [Compound 6, 7-O-(3'-N-(2-Furfuryl)-3'-N-methyl-alpha-L-daunosaminyl)-β-rhodomycinone] |  |  |  | 0.03 µg/mL (≈ 0.0492 µM) | 0.038 µg/mL (≈ 0.0623 µM) | not cross-resistant to doxorubicin | 2.0 | 2.0% | 1 to 5 mg/kg | response vs control in vivo at 2.8 mg/kg ([2]; Mus musculus, L1210, ip, 3xip,q3d, % of the control): 141%; response vs control in vivo at 2.8 mg/kg ([2]; Mus musculus, L1210, iv, 3xiv,q3d, % of the control): 129% |
| C#CCN(C)[C@H]1C[C@H](O[C@H]2C[C@](O)(CC)[C@H](O)c3c(O)c4c(c(O)c32)C(=O)c2c(O)cccc2C4=O)O[C@@H](C)[C@H]1O [Compound 2, 7-O-(3'-N-methyl-3'-N-proparayl-alpha-L-daunosaminyl)-β-rhodomycinone] |  |  | 2 to 5 mg/kg | 0.08 µg/mL (≈ 0.141 µM) | 0.3 µg/mL (≈ 0.529 µM) |  |  |  |  | response vs control in vivo at 1.2 mg/kg ([2]; Mus musculus, L1210, iv, 3xiv,q3d, dose 1.20 mg/kg, % of the control): 144% |
| COc1cccc2c1C(=O)c1c(O)c3c(c(O)c1C2=O)C[C@@](O)(C(=O)CO)C[C@@H]3O[C@H]1C[C@H](N)[C@H](O)[C@H](C)O1 [Adriamycin, reference compound] |  |  |  | 0.02 µg/mL (≈ 0.0368 µM) | 0.04 µg/mL (≈ 0.0736 µM) |  | 60-80 | 100.0% | 2.7 mg/kg | Animals recovered (longterm survivors) ([2]; 3xip,q3d, L1210-leukemia in vivo): Two of 6 |
| C=CCN(C)[C@H]1C[C@H](O[C@H]2C[C@](O)(CC)[C@H](O)c3c(O)c4c(c(O)c32)C(=O)c2c(O)cccc2C4=O)O[C@@H](C)[C@H]1O [Compound 1, 7-O-(3'-N-Allyl-3'-N-methyl-alpha-L-daunosaminyl)-β-rhodomycinone] | 0.01 µg/mL (≈ 0.0176 µM) | 0.08 µg/mL (≈ 0.14 µM) |  |  |  | not cross-resistant to doxorubicin | 10.0 | 19.0% | 1 to 5 mg/kg | response vs control in vivo at 1.19 mg/kg ([2]; Mus musculus, L1210, ip, read-out: T/C, L1210-leukemia in vivo): 200%; response vs control in vivo at 1 mg/kg [2, 8]: 146% |
| CC[C@@]1(O)C[C@H](O[C@H]2C[C@H](N(C)Cc3ccsc3)[C@H](O)[C@H](C)O2)c2c(O)c3c(c(O)c2[C@H]1O)C(=O)c1cccc(O)c1C3=O [Compound 12, 7-O-(3'-N-Methyl-3'-N-(3-thenyl)-alpha-L-daunosaminyl)-β-rhodomycinone] | 0.032 µg/mL (≈ 0.0511 µM) | 0.17 µg/mL (≈ 0.272 µM) | 2 to 5 mg/kg |  |  |  |  |  |  |  |
